We go through 16 compounds from US5147878A, “Aminoalkoxyphenyl derivatives, process of preparation and compositions containing the same” (Sanofi, priority 1986, dated 1992).

Where a name gives a salt, the structure may show the parent alone. Where only a bound is given, the exact number is not on record here.

For orientation: inhibition in vivo means the drop in the measured response relative to a control, in per cent.

For assay [1], the system named is isoprenaline-induced acceleration in heart rate (anti-β effect). Nature of the assay: Antiadrenergic properties: anti-β effect (reduction of isoprenaline-induced tachycardia). The class given is in vivo. Further details: key to anti-β effect: +: for a reduction < 50%; ++: for a reduction ≥ 50%; +++: for a reduction sub-total (almost complete reduction). The note with it: dog; for inhibition in vivo at 0.13 mg/kg: 0.13 mg/kg i.v. On the procedure: The object of this test is to determine the capacity of the compounds of the invention for reducing the increase in epinephrine-induced increase in blood-pressure (anti-α effect) and the isoprenaline-induced acceleration in heart rate (anti-β effect), in dogs previously anaesthatized with pentobarbital and atropinized. For each dog, the dose of epinephrine (between 3 and 10 μg/kg) which induced a reproducible increase in the blood-pressure of approximately 133×10^2 Pa and the dose of isoprenaline (1 to 2 μg/kg) which induced a reproducible increase in the heart rate of approximately 70 beats/min. were first determined. The dose of epinephrine and of isoprenaline, determined in this manner, were injected alternately every ten minutes and, after two successive reference responses had been obtained, an amount of the test compound was administered intravenously. The percentage reduction in the acceleration of the heart rate induced by the test compound compared with the reference tachycardia measured previously (approximately 70 beats) was recorded. In both cases, the results of the reduction in blood-pressure or in the heart rate have been expressed as follows: […]

Assay [2] deals with epinephrine-induced increase in blood-pressure (anti-α effect). The assay can be described thus: Antiadrenergic properties: anti-α effect (reduction of epinephrine-induced hypertension). Also on record: key to anti-α effect: +: for a reduction < 50%; ++: for a reduction ≥ 50%; +++: for a reduction sub-total (almost complete reduction). The note with it: dog. It is filed as in vivo. On the procedure: The object of this test is to determine the capacity of the compounds of the invention for reducing the increase in epinephrine-induced increase in blood-pressure (anti-α effect) and the isoprenaline-induced acceleration in heart rate (anti-β effect), in dogs previously anaesthatized with pentobarbital and atropinized. For each dog, the dose of epinephrine (between 3 and 10 μg/kg) which induced a reproducible increase in the blood-pressure of approximately 133×10^2 Pa and the dose of isoprenaline (1 to 2 μg/kg) which induced a reproducible increase in the heart rate of approximately 70 beats/min. were first determined. The dose of epinephrine and of isoprenaline, determined in this manner, were injected alternately every ten minutes and, after two successive reference responses had been obtained, an amount of the test compound was administered intravenously. The percentage reduction in the hypertension induced by the test compound compared with the reference hypertension previously obtained (approximately 100 mm Hg) was recorded. In both cases, the results of the reduction in blood-pressure or in the heart rate have been expressed as follows: […]

The next assay has as its system isolated rat aorta. The assay can be described thus: Calcium inhibitory properties: contractile response to potassium-induced depolarization on isolated rat aorta. Also on record: species or system isolated organ, male Wistar rats. The note with it: for activity at 1 µM / activity at 0.1 µM / activity at 0.01 µM / activity at 0.001 µM: Rattus norvegicus, 1 h, read-out: % of the maximum contractional effect; for activity at 1 µM: 10^-6 M; for activity at 0.1 µM: 10^-7 M; for % of the maximum contractional effect: 60 min; for activity at 0.001 µM: 10^-9 M. Put shortly: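 Contraction is expressed as % of the pre-incubation maximum, measured after a 60 min compound exposure and a fresh K+ (100 mM KCl) depolarization. Tissue: aortic strips from male Wistar rats, 2 g tension, modified Krebs-bicarbonate, 37° C, CO2/O2 gassed.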

Setting [3] is: Canis lupus familiaris, iv, 11.2 mg/kg i.v.
[4] abbreviates: Canis lupus familiaris, iv, 0.52 mg/kg i.v.
[5] abbreviates: Canis lupus familiaris, iv, 0.3 mg/kg i.v.
The mark [6] stands for this setting: Canis lupus familiaris, iv, 4.9 mg/kg i.v.
The mark [7] stands for this setting: Canis lupus familiaris, iv, 5 mg/kg i.v.
Setting [8] is: Canis lupus familiaris, iv, 10 mg/kg i.v., known compounds.
Setting [9] is: Canis lupus familiaris, iv, 0.5 mg/kg i.v.
[10] abbreviates: Canis lupus familiaris, iv, 0.027 mg/kg i.v.
The mark [11] stands for this setting: Canis lupus familiaris, iv, 5.89 mg/kg i.v.

For the compound `COc1ccc(CCN(C)CCCOc2ccc(S(=O)(=O)c3ccccn3)cc2)cc1OC` [Ex. 59, 2-[4-{3-[N-methyl-N-(3,4-dimethoxy-β-phenethyl)amino]propyloxy}benzenesulphonyl]pyridine oxalate], in assay [1] (setting [3]), the inhibition in vivo at 11.2 mg/kg was at least 50%. The compound further registered an inhibition in vivo at 11.2 mg/kg in assay [2] (setting [3]) of at least 50%. Further, in the assay with isolated rat aorta, the activity at 1 µM is 81.7% and the activity at 0.1 µM was determined as 87.5%. Further, the “% of the maximum contractional effect” value in the assay with isolated rat aorta (head printed "10^-" (exponent missing; first of three columns before 10^-6 M)) is recorded as 33.3%.
In the case of `CC(C)c1nn2ccccc2c1S(=O)(=O)c1ccc(OCCCNC(C)(C)C)cc1` [Ex. 72, 2-isopropyl-3-{4-[3-(tertiobutylamino)propyloxy]benzenesulphonyl}pyrazolo[1,5-a]pyridine oxalate], the inhibition in vivo at 0.52 mg/kg in assay [1] (setting [4]) was below 50%; in assay [2] (setting [4]), at least 50%. Further, in the assay with isolated rat aorta, the activity at 1 µM stood at 13.2%. Besides, the activity at 0.1 µM with isolated rat aorta worked out at 66.5%. Further, the activity at 0.01 µM in the assay with isolated rat aorta (10^-8 M) amounted to 84%.
The compound `COc1ccc(CCN(C)CCCOc2ccc(S(=O)(=O)c3c(C(C)C)cn4ccccc34)cc2)cc1` [Ex. 47, 2-Isopropyl-1-[4-{3-[N-methyl-N-(4-methoxy-β-phenethyl)amino]propyloxy}benzenesulphonyl]indolizine acid oxalate] showed an inhibition in vivo at 0.3 mg/kg in assay [1] (setting [5]) below 50%. The compound further yielded an inhibition in vivo at 0.3 mg/kg in assay [2] (setting [5]) of at least 50%. In the assay on isolated rat aorta, the activity at 0.1 µM was found to be 17.9% and the activity at 0.001 µM is 86.5%. Further, the activity at 0.01 µM in the assay with isolated rat aorta (10^-8 M) amounted to 69.6%.
For `CCCCN(CCCC)CCCCOc1ccc(S(=O)(=O)c2c(CC)cn3ccccc23)cc1` [Ex. 23, 2-Ethyl-1-{4-[4-(di-n-butylamino)butyloxy]benzenesulphonyl}indolizine hemioxalate], the anti-β effect result in assay [1] (1 mg/kg i.v.) is reported as “+++”. Moreover, the anti-α effect entry in assay [2] (1 mg/kg i.v.) is “+++”. The activity at 0.1 µM in the assay on isolated rat aorta was determined as 24.1%. In addition, the activity at 0.01 µM with isolated rat aorta (10^-8 M) came to 77.8%.
`COc1ccc(CCN(C)CCCOc2ccc(S(=O)(=O)c3c(C(C)C)nn4ccccc34)cc2)cc1OC` [Ex. 71, 2-isopropyl-3-[4-{3-[N-methyl-N-(3,4-dimethoxy-β-phenethyl)amino]propyloxy}benzenesulphonyl]pyrazolo(1,5-a]pyridine oxalate]: the inhibition in vivo at 0.13 mg/kg in assay [1] (Canis lupus familiaris, iv) was at least 50%. Moreover, the anti-α effect entry in assay [2] (0.13 mg/kg i.v.) was “+++”. Further, in the assay with isolated rat aorta, the activity at 1 µM was 0%, the activity at 0.1 µM worked out at 15.1% and the activity at 0.001 µM is 84.9%. Besides, in the assay with isolated rat aorta (10^-8 M), the activity at 0.01 µM turned out to be 67.1%.
Take `CCCCN(CCCC)CCCOc1ccc(S(=O)(=O)c2ccccc2)cc1` [Ex. 64, 4-[3-(di-n-butylamino)propyloxy]benzenesulphonylbenzene oxalate]: the inhibition in vivo at 4.9 mg/kg in assay [1] (setting [6]) is at least 50%. The compound also had an inhibition in vivo at 4.9 mg/kg in assay [2] (setting [6]) below 50%. In addition, in the assay on isolated rat aorta, the activity at 1 µM came out at 32.4% and the activity at 0.1 µM was determined as 85.3%.
With `CCCCc1cn2ccccc2c1S(=O)(=O)c1ccc(OCCCN(CCC)CCC)cc1.O=C(O)C(=O)O` [Ex. 12, 2-n-Butyl-1-{4-[3-(di-n-propylamino)propyloxy]benzenesulphonyl}indolizine oxalate], in assay [1] (5 mg/kg i.v.), the anti-β effect entry was “+++”. The inhibition in vivo at 5 mg/kg in assay [2] (setting [7]) was at least 50%. Further, in the assay on isolated rat aorta, the activity at 1 µM was 36.3%.
Take `CCCCNCCCOc1ccc(S(=O)(=O)c2c(CC)cn3ccccc23)cc1.O=C(O)C(=O)O` [Ex. 21, 2-Ethyl-1-{4-[3-(n-butylamino)propyloxy]benzenesulphonyl}indolizine oxalate]: the anti-β effect result in assay [1] (5 mg/kg i.v.) is recorded as “+++”. Moreover, the anti-α effect result in assay [2] (5 mg/kg i.v.) is reported as “+++”. Besides, in the assay with isolated rat aorta, the activity at 1 µM was found to be 8.3% and the activity at 0.1 µM was 74.7%.
The compound `CCCCN(CCCC)CCCOc1c(C)cc(C(=O)c2c(CC)cn3ccccc23)cc1C` [Compound D, reference compound] gave an inhibition in vivo at 10 mg/kg in assay [1] (setting [8]) below 50%. Further, the inhibition in vivo at 10 mg/kg in assay [2] (setting [8]) was below 50%. Besides, in the assay with isolated rat aorta, the activity at 1 µM turned out to be 19.3% and the activity at 0.1 µM came out at 64.7%.
For `CCCCc1oc2ccccc2c1S(=O)(=O)c1ccc(OCCCN(C)CCc2ccc(OC)c(OC)c2)cc1` [Ex. 69, 2-n-butyl-3-[4-{3-[N-methyl-N-(3,4-dimethoxy-β-phenethyl)amino]propyloxy}benzenesulphonyl]benzofuran hydrochloride], in assay [1] (1.2 mg/kg i.v.), the anti-β effect entry is recorded as “+ +”. In addition, the anti-α effect entry in assay [2] (1.2 mg/kg i.v.) is reported as “+++”. For the same compound, in the assay on isolated rat aorta, the activity at 1 µM is 36.8% and the activity at 0.1 µM came out at 59%. In the assay on isolated rat aorta (10^-8 M), the activity at 0.01 µM is 76%.
In turn, `COc1ccc(CCN(C)CCCOc2ccc(S(=O)(=O)C3=C(C(C)C)OCC3)cc2)cc1OC` [Ex. 73, 2-isopropyl-3-[4-{3-[N-methyl-N-(3,4-dimethoxy-β-phenethyl)amino]propyloxy}benzenesulphonyl]-4,5-dihydro-furan oxalate] had an inhibition in vivo at 3 mg/kg in assay [1] (Canis lupus familiaris, iv, 3 mg/kg i.v.) of at least 50%. Moreover, in assay [2] (3 mg/kg i.v.), the anti-α effect result was “+++”. In the assay on isolated rat aorta, the activity at 1 µM is 8.2% and the activity at 0.1 µM is 66.7%. For the same compound, the activity at 0.01 µM in the assay with isolated rat aorta (10^-8 M) came out at 78.3%.
For `CCCCN(CCCC)CCCOc1ccc(S(=O)(=O)c2c(CC)cn3ccccc23)cc1` [Ex. 8, 2-Ethyl-1-{4-[3-(di-n-butylamino)propyloxy]benzenesulphonyl}indolizine hydrochloride], the inhibition in vivo at 0.5 mg/kg in assay [1] (setting [9]) was below 50%; in assay [2] (setting [9]), at least 50%. For the same compound, the activity at 0.1 µM with isolated rat aorta was 30.9%.
Compound `COc1ccc(CCN(C)CCCOc2ccc(S(=O)(=O)c3c(C(C)C)cc4ccccn34)cc2)cc1OC` [Ex. 55, 2-isopropyl-3-[4-{3-[N-methyl-N-(3,4-dimethoxy-β-phenethyl)amino]propyloxy}benzenesulphonyl]indolizine oxalate] gave an inhibition in vivo at 0.13 mg/kg in assay [1] (Canis lupus familiaris, iv) of at least 50%. In assay [2] (0.13 mg/kg i.v.), the anti-α effect entry is listed as “+++”. For the same compound, in the assay with isolated rat aorta, the activity at 0.1 µM was 9.5% and the activity at 0.001 µM is 68.7%. The activity at 0.01 µM in the assay on isolated rat aorta (10^-8 M) was determined as 34.1%.
As to `COc1cc(CCNCCCOc2ccc(S(=O)(=O)c3c(C(C)C)cn4ccccc34)cc2)cc(OC)c1` [Ex. 133, 1-[4-{3-[N-(3,5-dimethoxy-β-phenethyl)amino]propyloxy}benzenesulphonyl]-2-isopropyl-indolizine acid oxalate], the values for the inhibition in vivo at 0.027 mg/kg in assay [1] (setting [10]) and in assay [2] (setting [10]) were below 50% and at least 50%, respectively. Besides, the “% of the maximum contractional effect” value in the assay with isolated rat aorta (10^-8 M, 0.01 µM) stood at 30.3%. In addition, the activity at 0.1 µM with isolated rat aorta stood at 6.2%. The activity at 0.01 µM in the assay with isolated rat aorta (10^-8 M) was found to be 30.5%. The activity at 0.001 µM in the assay with isolated rat aorta was determined as 73.4%.
The compound `CCCCc1cn2ccccc2c1S(=O)(=O)c1ccc(OCCCNC(C)(C)C)cc1.O=C(O)C(=O)O` [Ex. 29, 2-n-Butyl-1-{4-[3-(tert-butylamino)propyloxy]benzenesulphonyl}indolizine oxalate] had an inhibition in vivo at 5 mg/kg in assay [1] (setting [7]) of at least 50%. Besides, the anti-α effect result in assay [2] (5 mg/kg i.v.) was “+++”. The activity at 1 µM in the assay on isolated rat aorta was 30.7%.
For `CCCCc1nc2ccccc2n1S(=O)(=O)c1ccc(OCCCN(CCCC)CCCC)cc1` [Ex. 65, 2-n-butyl-1-{4-[3-(di-n-butylamino)propyloxy]benzenesulphonyl}benzimidazolacid oxalate], the inhibition in vivo at 5.89 mg/kg in assay [1] (setting [11]) is at least 50%. Besides, in assay [2] (setting [11]), the inhibition in vivo at 5.89 mg/kg is at least 50%. In the assay with isolated rat aorta, the activity at 1 µM was 47.5% and the activity at 0.1 µM amounted to 64.8%.
